Experimental data: paper PMC8386120, “Crystal Structure of Inorganic Pyrophosphatase From Schistosoma japonicum Reveals the Mechanism of Chemicals and Substrate Inhibition” (Frontiers in Cell and Developmental Biology, 2021)
Values belong to the molecule of their own block, whether it stands above or below them.

Key:
SjPPase [1] = target: T1, SjPPase (Schistosoma japonicum, UniProt Q5DE13); conditions: Co2+ bound; active site, P2 site (F intermediate)
T1 sequence (Q5DE13 1-287): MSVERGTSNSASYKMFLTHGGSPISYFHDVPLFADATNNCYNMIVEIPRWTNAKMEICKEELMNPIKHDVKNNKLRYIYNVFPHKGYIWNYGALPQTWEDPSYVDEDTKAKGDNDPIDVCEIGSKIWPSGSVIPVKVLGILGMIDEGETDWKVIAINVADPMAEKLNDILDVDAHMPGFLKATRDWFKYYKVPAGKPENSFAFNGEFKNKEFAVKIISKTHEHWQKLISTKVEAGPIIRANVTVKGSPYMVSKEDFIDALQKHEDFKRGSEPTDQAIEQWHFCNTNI

[2] = target: Schistosoma japonicum soluble inorganic pyrophosphatase (recombinant SjPPase) (Schistosoma japonicum); assay: crystal structure; X-ray crystal structures of apo-SjPPase (4QMB) and of SjPPase with Pi and cobalt ions (4QLZ); space group P32, two molecules in the asymmetric unit; first crystals from 0.2 M sodium malonate, 20% PEG 3,350, later optimised; protein at 16-18 mg/ml
SjPPase [3] = target: T1, SjPPase; assay: Pi release, PiPer fluorescence phosphate assay; assay type: biochemical; design: homodimer; crystal residues 1-284 and 1-283; conditions: 1 and 2 mM MDP; PPi substrate, Mg2+, 25 C

Molecule: O=P(O)(O)O [orthophosphate]
- X-ray crystal structure, 2.33 A (SjPPase [1]): the Pi in the SjPPase-Pi complex structure is at the P2 site

- stoichiometry N [2]: 2
Molecule: Schistosoma japonicum soluble inorganic pyrophosphatase (recombinant SjPPase) (enzyme)

Molecule: O=P(O)(O)CP(=O)(O)O [methylene diphosphonic acid]
- inhibition (SjPPase [3]): inhibitors NaF and MDP inhibited the enzymatic activity of SjPPase
